In ChEMBL document CHEMBL1201862, “PubChem BioAssay data set” (2004):
The source made the active and inactive calls.

Experiments:
[1] = inhibition of K1F phage lysis, E. coli UTI89, bacterial capsule biogenesis inhibitors, alamar blue (AID 488966); assay type: functional
[2] = target: T1, Corticotropin-releasing factor receptor 2/Corticotropin-releasing factor-binding protein (Homo sapiens, UniProt P24387+Q13324); test: Dose Response confirmation of uHTS hits for small molecule antagonists of the CRF-binding protein and CRF-R2 receptor complex.; assay type: functional; conditions: read-out: IC50_Mean
T1 sequence (Q13324 whole entry): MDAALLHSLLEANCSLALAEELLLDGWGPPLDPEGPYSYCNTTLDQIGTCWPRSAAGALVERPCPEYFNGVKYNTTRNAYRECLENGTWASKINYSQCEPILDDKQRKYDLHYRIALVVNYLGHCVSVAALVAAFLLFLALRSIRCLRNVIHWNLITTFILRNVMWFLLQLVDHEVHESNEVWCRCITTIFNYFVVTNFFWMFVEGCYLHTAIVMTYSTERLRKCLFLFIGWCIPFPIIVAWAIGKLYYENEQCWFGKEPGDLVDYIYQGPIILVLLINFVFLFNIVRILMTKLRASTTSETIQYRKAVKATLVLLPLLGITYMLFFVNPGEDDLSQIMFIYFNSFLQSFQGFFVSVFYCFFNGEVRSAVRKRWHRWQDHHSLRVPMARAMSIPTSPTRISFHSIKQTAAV
T1 sequence (P24387 whole entry): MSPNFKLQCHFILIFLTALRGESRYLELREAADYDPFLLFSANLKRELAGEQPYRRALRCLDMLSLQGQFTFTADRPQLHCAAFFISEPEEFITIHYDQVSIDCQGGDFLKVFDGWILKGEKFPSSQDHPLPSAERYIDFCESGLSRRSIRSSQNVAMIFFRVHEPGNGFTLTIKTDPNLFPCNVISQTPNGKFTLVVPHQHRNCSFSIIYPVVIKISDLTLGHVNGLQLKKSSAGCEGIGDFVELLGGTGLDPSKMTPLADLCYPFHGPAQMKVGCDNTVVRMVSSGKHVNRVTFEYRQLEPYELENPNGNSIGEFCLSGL

[3] = target: T2, Voltage-dependent T-type calcium channel subunit alpha-1H (Homo sapiens, UniProt O95180); assay type: functional;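 note: channel activity triggered by adding a high calcium stimulation buffer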
[4] = target: T1, Corticotropin-releasing factor receptor 2/Corticotropin-releasing factor-binding protein; test: activators of CRF receptor 2 with binding protein – uHTS hits, confirmation (AID 602473); assay type: functional; conditions: read-out: EC50_Mean
[5] = THP-1 cell cytotoxicity, dose response, cytotoxicity control for non-replicating M. tuberculosis project (AID 489025); assay type: functional
[6] = HepG2 cell cytotoxicity, dose response, cytotoxicity control for non-replicating M. tuberculosis project (AID 489018); assay type: functional; conditions: Mycobacterium tuberculosis
cells = assay type: functional
[7] = target: Female germline-specific tumor suppressor gld-1 (Caenorhabditis elegans, UniProt Q17339); test: inhibitors of GLD-1 binding to TGE RNA, dose response, biochemical, fluorescence polarization, C. elegans (AID 2802);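 note: fluorescence polarization of labeled TGE RNA bound by purified gld-1 protein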
Protein Rev = Protein Rev (Human immunodeficiency virus type 1 group M subtype B (isolate HXB2)(HIV-1), UniProt P04618); test: inhibitors of Rev binding to RRE RNA, dose response, biochemical, fluorescence polarization, HIV-1 (AID 434976); set-up: species or system Human immunodeficiency virus 1
[8] = target: G-protein coupled receptor 55 (Homo sapiens, UniProt Q9Y2T6); test: GPR55 antagonists blocking LPI-driven arrestin recruitment, primary screen, imaging, U2OS, beta-arrestin-GFP, LPI agonist (AID 2013); assay type: functional;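 note: antagonist potency measured as reduced agonist-driven arrestin aggregation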
[9] = target: T3, Nucleotide-binding oligomerization domain-containing protein 2 (Homo sapiens, UniProt Q9HC29); test: NOD2 signaling inhibitors, cell-based, luminescence, uHTS, HEK293 (AID 1566); assay type: functional
[10] = target: T4, Nucleotide-binding oligomerization domain-containing protein 1 (Homo sapiens, UniProt Q9Y239); test: NOD1 signaling inhibitors, SAR follow-up, revised (AID 2333); assay type: functional
T4 sequence (Q9Y239 whole entry): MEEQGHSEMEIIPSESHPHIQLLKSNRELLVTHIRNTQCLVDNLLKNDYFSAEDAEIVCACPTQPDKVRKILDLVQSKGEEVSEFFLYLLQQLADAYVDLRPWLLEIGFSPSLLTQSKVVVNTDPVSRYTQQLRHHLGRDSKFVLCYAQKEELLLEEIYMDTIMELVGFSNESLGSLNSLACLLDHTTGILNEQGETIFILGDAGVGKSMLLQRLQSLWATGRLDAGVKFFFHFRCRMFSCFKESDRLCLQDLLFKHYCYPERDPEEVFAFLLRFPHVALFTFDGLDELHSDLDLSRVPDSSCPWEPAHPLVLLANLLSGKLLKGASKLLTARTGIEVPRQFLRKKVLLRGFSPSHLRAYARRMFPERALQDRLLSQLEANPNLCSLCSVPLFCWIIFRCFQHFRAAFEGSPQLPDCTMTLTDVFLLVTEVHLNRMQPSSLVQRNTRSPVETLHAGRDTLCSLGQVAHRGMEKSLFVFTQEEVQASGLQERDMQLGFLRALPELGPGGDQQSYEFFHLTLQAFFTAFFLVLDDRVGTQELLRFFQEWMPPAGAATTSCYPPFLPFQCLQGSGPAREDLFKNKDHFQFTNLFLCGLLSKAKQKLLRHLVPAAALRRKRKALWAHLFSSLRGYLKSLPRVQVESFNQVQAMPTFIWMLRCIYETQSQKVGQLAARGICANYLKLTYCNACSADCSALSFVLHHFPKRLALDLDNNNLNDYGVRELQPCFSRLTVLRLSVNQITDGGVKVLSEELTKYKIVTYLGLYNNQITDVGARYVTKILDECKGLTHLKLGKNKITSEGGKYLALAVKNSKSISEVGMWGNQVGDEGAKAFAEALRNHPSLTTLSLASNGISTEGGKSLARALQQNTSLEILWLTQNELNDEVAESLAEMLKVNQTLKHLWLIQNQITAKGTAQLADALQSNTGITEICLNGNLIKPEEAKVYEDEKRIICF

[11] = target: T3, Nucleotide-binding oligomerization domain-containing protein 2; test: PubChem AID 2334; assay type: functional
Tumor necrosis factor = Tumor necrosis factor (Homo sapiens, UniProt P01375); test: TNFa-triggered NF-kB activation inhibitors, SAR follow-up, cell-based, revised (AID 2337); assay type: functional
[12] = target: T5, Voltage-gated N-type calcium channel alpha-1B subunit/Amyloid beta A4 precursor protein-binding family A member 1 (Homo sapiens, UniProt Q00975+Q02410); test: disruptors of Mint-PDZ/N-type channel peptide interaction – biochemical, HTRF, SAR follow-up (AID 2489); assay type: functional
[13] = target: T5, Voltage-gated N-type calcium channel alpha-1B subunit/Amyloid beta A4 precursor protein-binding family A member 1; test: disruptors of Mint-PDZ/N-type channel peptide interaction – biochemical, HTRF, set 2, SAR follow-up (AID 434980); assay type: functional
[14] = target: Intestinal-type alkaline phosphatase (Homo sapiens, UniProt P09923); test: Dose Response confirmation of uHTS hits from a small molecule inhibitors of human intestinal alkaline phosphatase via a luminescent assay. [Related pubchem assays (depositor defined):AID2544, AID2574]; assay type: functional
[15] = target: T2, Voltage-dependent T-type calcium channel subunit alpha-1H; test: Cav3.2 T-type channel inhibitors, cell-based, synthetic library set 1, calcium flux (AID 493022); assay type: functional
Mu-type opioid receptor [16] = target: T6, Mu-type opioid receptor (Homo sapiens, UniProt P35372); test: MOR antagonists, SAR follow-up, image-based (AID 2420); assay type: functional;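 note: compounds added before stimulation of receptor with agonist DAMGO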
[17] = target: T7, Delta-type opioid receptor (Homo sapiens, UniProt P41143); test: DOR agonists, SAR follow-up, image-based (AID 2370); assay type: functional
[18] = target: T8, Kappa-type opioid receptor (Homo sapiens, UniProt P41145); test: KOR antagonists by imaging, SAR follow-up, image-based (AID 2348); assay type: functional
[19] = target: T7, Delta-type opioid receptor; test: DOR antagonists, SAR follow-up, image-based (AID 2357); assay type: functional
[20] = target: T8, Kappa-type opioid receptor; test: kappa opioid receptor blockers, cell-based, luminescence, beta-arrestin, SAR follow-up (AID 2285); assay type: functional
Mu-type opioid receptor [21] = target: T6, Mu-type opioid receptor; test: MOR agonists by imaging, SAR follow-up, image-based (AID 2352); assay type: functional
[22] = target: T8, Kappa-type opioid receptor; test: KOR agonist analogs, imaging readout, SAR follow-up, image-based (AID 2359); assay type: functional

T8 sequence (P41145 whole entry): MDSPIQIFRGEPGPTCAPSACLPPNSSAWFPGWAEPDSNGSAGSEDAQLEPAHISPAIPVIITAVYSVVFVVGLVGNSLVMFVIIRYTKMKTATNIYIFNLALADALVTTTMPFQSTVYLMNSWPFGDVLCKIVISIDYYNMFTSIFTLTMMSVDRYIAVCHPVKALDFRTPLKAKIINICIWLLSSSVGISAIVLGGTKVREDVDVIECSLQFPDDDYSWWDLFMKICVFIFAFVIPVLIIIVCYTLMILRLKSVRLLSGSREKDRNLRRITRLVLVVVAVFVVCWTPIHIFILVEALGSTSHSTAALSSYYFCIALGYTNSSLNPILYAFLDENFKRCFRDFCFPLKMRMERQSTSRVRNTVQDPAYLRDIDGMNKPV
T2 sequence (O95180 whole entry): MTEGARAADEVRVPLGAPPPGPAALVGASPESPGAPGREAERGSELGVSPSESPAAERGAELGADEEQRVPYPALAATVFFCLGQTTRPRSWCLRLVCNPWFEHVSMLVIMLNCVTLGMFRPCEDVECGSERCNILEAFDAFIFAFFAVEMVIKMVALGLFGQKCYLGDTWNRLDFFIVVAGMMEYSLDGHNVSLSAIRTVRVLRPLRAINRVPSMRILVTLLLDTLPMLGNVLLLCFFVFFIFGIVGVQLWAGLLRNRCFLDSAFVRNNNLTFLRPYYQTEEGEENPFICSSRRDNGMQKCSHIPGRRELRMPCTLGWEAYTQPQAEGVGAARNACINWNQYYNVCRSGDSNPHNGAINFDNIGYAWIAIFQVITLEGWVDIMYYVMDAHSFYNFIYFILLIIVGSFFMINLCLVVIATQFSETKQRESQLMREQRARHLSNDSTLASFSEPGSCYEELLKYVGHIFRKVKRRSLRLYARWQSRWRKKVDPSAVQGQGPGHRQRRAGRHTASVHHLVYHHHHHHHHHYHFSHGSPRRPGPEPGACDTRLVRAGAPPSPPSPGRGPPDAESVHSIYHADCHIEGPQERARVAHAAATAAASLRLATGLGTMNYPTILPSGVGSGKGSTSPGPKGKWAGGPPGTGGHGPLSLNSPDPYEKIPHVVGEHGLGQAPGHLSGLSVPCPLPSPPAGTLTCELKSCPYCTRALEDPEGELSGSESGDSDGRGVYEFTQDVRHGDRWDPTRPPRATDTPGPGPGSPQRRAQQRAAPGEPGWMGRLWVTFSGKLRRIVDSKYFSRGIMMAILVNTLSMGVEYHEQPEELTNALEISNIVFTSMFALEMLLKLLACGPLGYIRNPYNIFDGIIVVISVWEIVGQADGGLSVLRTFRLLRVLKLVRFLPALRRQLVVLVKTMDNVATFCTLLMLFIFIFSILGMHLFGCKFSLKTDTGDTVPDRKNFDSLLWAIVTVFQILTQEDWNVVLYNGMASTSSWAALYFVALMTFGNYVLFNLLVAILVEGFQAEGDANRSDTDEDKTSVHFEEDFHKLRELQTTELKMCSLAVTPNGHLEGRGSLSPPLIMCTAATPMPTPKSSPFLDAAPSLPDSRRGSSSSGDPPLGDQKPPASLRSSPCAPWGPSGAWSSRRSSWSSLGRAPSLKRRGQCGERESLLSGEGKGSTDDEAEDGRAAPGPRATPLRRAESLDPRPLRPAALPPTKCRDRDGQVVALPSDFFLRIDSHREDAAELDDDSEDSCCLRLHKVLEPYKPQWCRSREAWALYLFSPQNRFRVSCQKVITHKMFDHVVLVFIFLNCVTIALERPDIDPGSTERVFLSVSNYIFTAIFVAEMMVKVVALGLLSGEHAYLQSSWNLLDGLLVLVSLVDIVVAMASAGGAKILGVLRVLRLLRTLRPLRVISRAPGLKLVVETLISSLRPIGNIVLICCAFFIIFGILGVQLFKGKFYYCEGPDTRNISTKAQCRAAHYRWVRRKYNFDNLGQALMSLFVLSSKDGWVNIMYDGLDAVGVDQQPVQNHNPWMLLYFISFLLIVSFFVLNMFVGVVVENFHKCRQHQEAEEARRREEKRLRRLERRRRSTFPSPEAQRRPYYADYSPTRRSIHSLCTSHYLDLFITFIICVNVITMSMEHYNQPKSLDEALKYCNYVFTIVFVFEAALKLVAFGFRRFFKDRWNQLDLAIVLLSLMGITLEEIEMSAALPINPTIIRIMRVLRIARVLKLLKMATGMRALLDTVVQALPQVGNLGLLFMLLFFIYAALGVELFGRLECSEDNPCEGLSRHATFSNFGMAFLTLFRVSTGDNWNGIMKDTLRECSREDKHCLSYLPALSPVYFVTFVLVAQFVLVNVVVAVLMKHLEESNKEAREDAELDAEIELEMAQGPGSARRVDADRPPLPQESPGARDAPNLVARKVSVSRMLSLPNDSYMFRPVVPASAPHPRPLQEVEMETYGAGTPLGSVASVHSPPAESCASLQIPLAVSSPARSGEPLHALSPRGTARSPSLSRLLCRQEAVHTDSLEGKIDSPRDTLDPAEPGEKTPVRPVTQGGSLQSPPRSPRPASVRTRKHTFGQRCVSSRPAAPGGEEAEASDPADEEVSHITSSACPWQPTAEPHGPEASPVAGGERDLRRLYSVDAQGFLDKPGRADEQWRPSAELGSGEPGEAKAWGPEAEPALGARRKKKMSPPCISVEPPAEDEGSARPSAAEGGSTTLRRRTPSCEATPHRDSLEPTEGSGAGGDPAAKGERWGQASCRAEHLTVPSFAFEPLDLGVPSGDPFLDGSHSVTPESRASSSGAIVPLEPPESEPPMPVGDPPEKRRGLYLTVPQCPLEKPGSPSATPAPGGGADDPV
T7 sequence (P41143 whole entry): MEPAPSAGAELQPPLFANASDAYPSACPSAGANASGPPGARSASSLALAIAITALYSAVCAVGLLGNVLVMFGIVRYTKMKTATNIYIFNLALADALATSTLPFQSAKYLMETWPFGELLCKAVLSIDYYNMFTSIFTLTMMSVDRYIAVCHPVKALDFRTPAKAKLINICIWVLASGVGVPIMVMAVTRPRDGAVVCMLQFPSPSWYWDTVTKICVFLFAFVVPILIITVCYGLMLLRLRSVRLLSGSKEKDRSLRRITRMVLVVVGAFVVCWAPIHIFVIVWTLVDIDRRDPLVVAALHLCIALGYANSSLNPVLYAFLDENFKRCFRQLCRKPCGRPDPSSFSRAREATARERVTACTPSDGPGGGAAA
T6 sequence (P35372 whole entry): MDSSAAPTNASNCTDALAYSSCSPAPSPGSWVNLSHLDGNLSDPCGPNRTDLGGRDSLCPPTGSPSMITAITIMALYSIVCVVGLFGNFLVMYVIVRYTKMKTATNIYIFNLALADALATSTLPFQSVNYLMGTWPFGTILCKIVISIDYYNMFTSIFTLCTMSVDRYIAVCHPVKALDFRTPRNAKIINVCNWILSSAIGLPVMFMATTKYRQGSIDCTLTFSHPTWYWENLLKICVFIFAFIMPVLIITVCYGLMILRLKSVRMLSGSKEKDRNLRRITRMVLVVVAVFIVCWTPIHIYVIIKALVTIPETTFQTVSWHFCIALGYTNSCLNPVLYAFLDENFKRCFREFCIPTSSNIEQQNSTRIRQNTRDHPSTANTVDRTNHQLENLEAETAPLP
T3 sequence (Q9HC29 whole entry, the tested form may be a part): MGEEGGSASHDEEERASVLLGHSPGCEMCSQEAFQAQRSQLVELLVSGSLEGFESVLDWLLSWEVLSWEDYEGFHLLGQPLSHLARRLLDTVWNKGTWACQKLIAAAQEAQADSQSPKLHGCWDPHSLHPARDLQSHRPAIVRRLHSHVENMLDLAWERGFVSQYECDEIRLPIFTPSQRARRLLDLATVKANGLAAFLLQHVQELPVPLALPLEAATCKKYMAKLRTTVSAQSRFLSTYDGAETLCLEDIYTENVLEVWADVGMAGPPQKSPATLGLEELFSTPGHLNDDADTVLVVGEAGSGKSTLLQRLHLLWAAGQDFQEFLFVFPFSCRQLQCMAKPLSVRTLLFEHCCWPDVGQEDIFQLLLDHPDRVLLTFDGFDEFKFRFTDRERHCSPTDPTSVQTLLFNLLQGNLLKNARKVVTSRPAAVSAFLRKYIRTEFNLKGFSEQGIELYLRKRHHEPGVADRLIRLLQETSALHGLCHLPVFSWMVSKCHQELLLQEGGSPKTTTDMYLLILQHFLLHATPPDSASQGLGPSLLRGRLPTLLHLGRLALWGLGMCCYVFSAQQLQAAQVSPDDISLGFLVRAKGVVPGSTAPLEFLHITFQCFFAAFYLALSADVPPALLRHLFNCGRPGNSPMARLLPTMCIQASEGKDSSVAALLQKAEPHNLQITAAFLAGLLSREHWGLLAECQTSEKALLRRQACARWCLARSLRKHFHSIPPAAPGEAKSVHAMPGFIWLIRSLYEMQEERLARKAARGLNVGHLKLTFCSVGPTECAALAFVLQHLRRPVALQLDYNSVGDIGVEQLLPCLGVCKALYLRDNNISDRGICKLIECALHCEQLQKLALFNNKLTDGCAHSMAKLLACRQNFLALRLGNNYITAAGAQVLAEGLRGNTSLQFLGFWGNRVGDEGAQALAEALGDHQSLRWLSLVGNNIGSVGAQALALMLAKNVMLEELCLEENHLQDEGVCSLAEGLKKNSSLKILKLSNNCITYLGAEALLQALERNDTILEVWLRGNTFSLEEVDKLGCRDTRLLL
Sequence of Intestinal-type alkaline phosphatase (P09923 whole entry): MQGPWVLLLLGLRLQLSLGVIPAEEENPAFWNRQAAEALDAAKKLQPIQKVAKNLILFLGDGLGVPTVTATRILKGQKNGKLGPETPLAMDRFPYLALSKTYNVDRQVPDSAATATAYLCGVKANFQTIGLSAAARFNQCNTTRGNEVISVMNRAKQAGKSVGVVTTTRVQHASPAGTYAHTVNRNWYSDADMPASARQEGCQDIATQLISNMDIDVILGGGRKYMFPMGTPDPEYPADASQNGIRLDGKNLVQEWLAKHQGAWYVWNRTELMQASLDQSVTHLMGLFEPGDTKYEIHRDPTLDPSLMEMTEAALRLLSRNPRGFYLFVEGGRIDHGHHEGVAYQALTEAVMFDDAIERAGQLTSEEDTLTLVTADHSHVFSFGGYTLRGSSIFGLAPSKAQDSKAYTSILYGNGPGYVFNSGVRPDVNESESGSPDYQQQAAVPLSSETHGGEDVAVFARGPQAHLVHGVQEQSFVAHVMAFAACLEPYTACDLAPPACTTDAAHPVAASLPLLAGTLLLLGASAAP

CCOc1ccc(NC(=O)C2CCC(C)(C(=O)O)C2(C)C)cc1 (stereo not given)
IC50 [1]: > 300 µM (active)

COc1ccc(C(c2nnnn2Cc2ccccc2)N2CCN(c3ccccc3)CC2)cc1 (stereo not given)
IC50 [2]: > 47.1 µM (inactive)
EC50 [3]: 3.34 µM (active)
EC50 [4]: > 53 µM (inactive)

Cc1ccc(-n2cc(CNCCc3cscn3)c(-c3ccc(F)cc3)n2)cc1
CC50 [5]: 23.1 µM (active)
CC50 [6]: 16.5 µM (active)
IC50 (cells): 12.7 µM (active)

CCN(CC)S(=O)(=O)c1ccc(N2CCCC2)c(NS(=O)(=O)c2ccc(F)cc2)c1
IC50 [7]: 4.04 µM (active)
IC50 (Protein Rev): > 75.4 µM (not active)

Nc1nc(C23CC4CCC(CC(C4)C2)C3)cs1
IC50 [8]: 7.48 µM (active)

Cc1nn(-c2ccccc2)c2nc(C(Cl)(Cl)Cl)[nH]c(=O)c12
EC50 [9]: 10.5 µM (active)
IC50 [10]: 4.5 µM (active)
IC50 [11]: 5.9 µM (active)
IC50 (Tumor necrosis factor): 6.62 µM (active)

CC12C=CC(C)(O1)C1C(=O)N(c3ccccc3)C(=O)C12 (stereo not given)
IC50 [12]: 11.7 µM (active)
IC50 [13]: 10.5 µM (active)

c1ccc(-c2nnc(CN3CCC4(CC3)OCCO4)o2)cc1
IC50 [14]: > 100 µM (inactive)

O=C(COc1ccc(F)cc1)Nc1nnc(-c2ccc3c(c2)CCCC3)o1
EC50 [15]: 2.1 µM (active)

Cc1ccc(-n2[nH]c(C)c(C=Nc3ccc(Cl)c4cccnc34)c2=O)cc1
IC50 (Mu-type opioid receptor [16]): > 32 µM (inactive)
EC50 [17]: 14.8 µM (inactive)
IC50 [18]: > 32 µM (inactive)
IC50 [19]: > 32 µM (inactive)
IC50 [20]: > 10 µM (inactive)
EC50 (Mu-type opioid receptor [21]): 2.73 µM (active)
EC50 [22]: 3.85 µM (active)
